Consider 80 compounds from publication PMC6792352, “Limited Chemical Structural Diversity Found to Modulate Thyroid Hormone Receptor in the Tox21 Chemical Library” (Environmental Health Perspectives, 2019).

Each structure is given as a SMILES string. Counter-ions that a name gives are not always drawn. Where only a bound is given, the exact number is not on record here.

The nature of one series: in vitro. To be noted: rat, gh3-tre-luc cells, AC50 (uM) modified / 1000.
In the case of `O=Cc1ccc(Cl)cc1` [4-Chlorobenzaldehyde], the CC50 (commonly the concentration at which the toxic effect on the cells reaches its halfway point) at 24 h is greater than 90 µM.
The compound `O=S(=O)(O)c1ccc(Cl)cc1` [4-Chlorobenzenesulfonic acid] had a CC50 at 24 h greater than 90 µM.
Regarding `Clc1ccc(C(Cl)(Cl)Cl)cc1` [4-Chlorobenzotrichloride], the CC50 at 24 h was greater than 90 µM.
Same read-out and setting: the result for `Oc1ccc(Cl)cc1` [4-Chlorophenol] reads greater than 90 µM; that for `O=C(O)COc1ccc(Cl)cc1` [4-Chlorophenoxyacetic acid], greater than 90 µM.
Same read-out and setting: to `O=C=Nc1ccc(Cl)cc1` [4-Chlorophenyl isocyanate] belongs greater than 90 µM.
Still for that read-out and setting: the result for `CSc1ccc(Cl)cc1` [4-Chlorophenyl methyl sulfide] reads greater than 90 µM.
`CS(=O)(=O)c1ccc(Cl)cc1` [4-Chlorophenyl methyl sulfone] gave a CC50 at 24 h greater than 90 µM.
On the same count and under the same terms, to `O=S(=O)(c1ccccc1)c1ccc(Cl)cc1` [4-Chlorophenyl phenyl sulfone] belongs greater than 90 µM.
Same read-out and setting: the result for `NC(=O)Nc1ccc(Cl)cc1` [4-Chlorophenylurea] reads greater than 90 µM; that for `[O-][n+]1ccc(Cl)cc1` [4-Chloropyridine 1-oxide], greater than 100 µM.
On the same count and under the same terms, the result for `Cc1ccc(Cl)cc1` [4-Chlorotoluene] reads greater than 100 µM; that for `N#Cc1ccc(C(=O)O)cc1` [4-Cyanobenzoic acid], greater than 90 µM.
`CC(=O)CC(C)(C)C1CCCCC1` [4-Cyclohexyl-4-methyl-pentan-2-one]: the CC50 at 24 h is greater than 90 µM.
Regarding `OC1CCC(C2CCCCC2)CC1` (stereo not drawn) [4-Cyclohexylcyclohexanol], the CC50 at 24 h is greater than 90 µM.
The same measure, in the same setting: the result for `O=C1CCC(C2CCCCC2)CC1` [4-Cyclohexylcyclohexanone] reads greater than 90 µM; that for `Cc1c(N(C)C)c(=O)n(-c2ccccc2)n1C` [4-Dimethylaminoantipyrine], greater than 50 µM.
The same measure, in the same setting: the result for `CN(C)c1ccc(C=O)cc1` [4-Dimethylaminobenzaldehyde] reads greater than 90 µM; that for `CCCCCCCCCCCCN1CCOCC1` [4-Dodecylmorpholine], greater than 90 µM; that for `CCCCCCCCCCCCc1ccc(O)cc1` [4-Dodecylphenol], 15.6 µM.
Still for that read-out and setting: the result for `C=Cc1ccc(OC(C)=O)cc1` [4-Ethenylphenyl acetate] reads greater than 90 µM; that for `CCOc1ccc(N)c([N+](=O)[O-])c1` [4-Ethoxy-2-nitroaniline], greater than 90 µM.
In turn, `CCOC(=O)C=CC(=O)O` [4-Ethoxy-4-oxobut-2-enoic acid] displayed a CC50 at 24 h greater than 90 µM.
On the same count and under the same terms, to `CCOc1ccc(O)cc1` [4-Ethoxyphenol] belongs greater than 90 µM; to `CCc1ccc(O)c(OC)c1` [4-Ethyl-2-methoxyphenol], greater than 90 µM; to `CCc1ccc(C=O)cc1` [4-Ethylbenzaldehyde], greater than 90 µM.
`CCc1ccc(S(=O)(=O)O)cc1` [4-Ethylbenzenesulfonic acid]: the CC50 at 24 h was greater than 50 µM.
The compound `C#CC(O)C(CC)CCCC` (stereo not drawn) [4-Ethyloct-1-yn-3-ol] showed a CC50 at 24 h greater than 90 µM.
On the same count and under the same terms, to `CCc1ccc(O)cc1` [4-Ethylphenol] belongs greater than 90 µM; to `CCc1ccc(C)cc1` [4-Ethyltoluene], greater than 90 µM; to `Nc1ccc(F)cc1` [4-Fluoroaniline], greater than 100 µM.
Turning to `O=Cc1ccc(F)cc1` [4-Fluorobenzaldehyde], the CC50 at 24 h is greater than 90 µM.
On the same count and under the same terms, to `C/C=C/C(=O)CC` [4-Hexen-3-one] belongs greater than 20 µM; to `CCCCCCc1ccc(-c2ccc(C#N)cc2)cc1` [4-Hexyl-4'-cyanobiphenyl], greater than 90 µM; to `CCCCCCc1ccc(N)cc1` [4-Hexylaniline], 81.3 µM.
The same measure, in the same setting: the result for `CCCCCCOc1ccc(N)cc1` [4-Hexyloxyaniline] reads greater than 90 µM.
Same read-out and setting: the result for `NNc1ccc(C(=O)O)cc1` [4-Hydrazinobenzoic acid] reads greater than 90 µM; that for `CC1(C)CC(O)CC(C)(C)N1[O]` [4-Hydroxy-2,2,6,6-tetramethylpiperidin-1-yl)oxidanyl], greater than 90 µM; that for `CC1=C(O)C(=O)C(C)O1` (stereo not drawn) [4-Hydroxy-2,5-dimethyl-3(2H)furanone], greater than 90 µM.
As for `COc1cc(C=O)ccc1O` [4-Hydroxy-3-methoxybenzaldehyde], the CC50 at 24 h was greater than 50 µM.
Still for that read-out and setting: to `O=C(c1ccc(O)cc1)c1ccc(Cl)cc1` [4-Hydroxy-4'-chlorobenzophenone] belongs greater than 90 µM; to `CC1=C(O)C(=O)CO1` [4-Hydroxy-5-methyl-3-furanone], greater than 90 µM.
Same read-out and setting: to `O=S(=O)(O)c1cc(O)c2ccc(Nc3ccccc3)cc2c1` [4-Hydroxy-7-(phenylamino)naphthalene-2-sulfonic acid] belongs greater than 90 µM; to `CC(=O)c1ccc(O)cc1` [4-Hydroxyacetophenone], greater than 90 µM.
The same measure, in the same setting: to `O=C(O)c1ccc(O)cc1` [4-Hydroxybenzoic acid] belongs greater than 90 µM; to `O=C(c1ccccc1)c1ccc(O)cc1` [4-Hydroxybenzophenone], greater than 90 µM; to `CC(C)c1ccc(C=O)cc1` [4-Isopropylbenzaldehyde], greater than 90 µM.
Take `CC(C)c1ccc(S(=O)(=O)O)cc1` [4-Isopropylbenzenesulfonic acid]: the cytotoxic concentration (CC50) at 24 h was greater than 90 µM.
Turning to `CC(C)c1ccc(C#N)cc1` [4-Isopropylbenzonitrile], the CC50 at 24 h is greater than 90 µM.
Still for that read-out and setting: to `CC(C)c1ccc(CO)cc1` [4-Isopropylbenzyl alcohol] belongs greater than 90 µM.
On the same count and under the same terms, to `CC(C)C1CCC(O)CC1` (stereo not drawn) [4-Isopropylcyclohexanol] belongs greater than 90 µM; to `COc1ccc(Nc2ccccc2)c(C)c1` [4-Methoxy-2-methyl-N-phenylaniline], greater than 90 µM; to `COc1ccc(N)c(C)c1` [4-Methoxy-2-methylaniline], greater than 90 µM.
The same measure, in the same setting: to `COc1ccc(N)c([N+](=O)[O-])c1` [4-Methoxy-2-nitroaniline] belongs greater than 90 µM; to `COc1ccc(C(=O)Nc2ccccc2)cc1[N+](=O)[O-]` [4-Methoxy-3-nitro-N-phenylbenzamide], greater than 90 µM; to `COC(C)(C)CC(C)=O` [4-Methoxy-4-methyl-2-pentanone], greater than 90 µM.
With `COc1ccc(/C=C/C(=O)O)cc1` [4-Methoxy-(2E)-cinnamic acid], the CC50 at 24 h was greater than 50 µM.
Regarding `COc1ccc(C=O)cc1` [4-Methoxybenzaldehyde], the 50% cytotoxic concentration (CC50) at 24 h was greater than 90 µM.
The same measure, in the same setting: the result for `COc1ccc(CCO)cc1` [4-Methoxybenzeneethanol] reads greater than 90 µM.
In turn, `COc1ccc(COC(C)=O)cc1` [4-Methoxybenzyl acetate] gave a 50% cytotoxic concentration (CC50) at 24 h greater than 80 µM.
In turn, `COc1ccc(COC=O)cc1` [4-Methoxybenzyl formate] registered a CC50 at 24 h greater than 90 µM.
Consider `COc1ccc(O)cc1` [4-Methoxyphenol], for which the CC50 at 24 h was greater than 90 µM.
Turning to `CC1=CCC(O)(C(C)C)CC1` (stereo not drawn) [4-Methyl-1-(propan-2-yl)cyclohex-3-en-1-ol], the cytotoxic concentration (CC50) at 24 h is greater than 90 µM.
`CC(C)CC(O)Cc1ccccc1` (stereo not drawn) [4-Methyl-1-phenyl-2-pentanol] gave a CC50 at 24 h greater than 90 µM.
The same measure, in the same setting: the result for `CC1CN(c2ccccc2)NC1=O` (stereo not drawn) [4-Methyl-1-phenylpyrazolidin-3-one] reads greater than 90 µM; that for `Cc1ccc(N)c([N+](=O)[O-])c1` [4-Methyl-2-nitroaniline], greater than 90 µM; that for `Cc1ccc(O)c([N+](=O)[O-])c1` [4-Methyl-2-nitrophenol], greater than 90 µM.
Compound `CC(C)CC(C)O` (stereo not drawn) [4-Methyl-2-pentanol] gave a CC50 at 24 h greater than 90 µM.
Consider `CC(=O)CC(C)C` [4-Methyl-2-pentanone], for which the cytotoxic concentration (CC50) at 24 h is greater than 90 µM.
In turn, `CCCC(C)C(O)CC` (stereo not drawn) [4-Methyl-3-heptanol] displayed a CC50 at 24 h greater than 90 µM.

The same series, now with this note: rat, gh3-tre-luc cells, AC50 (uM) modified / 1000, Tox21_110001=Tox21_112111; viability, 1 nM T3 present, 24 h.
The compound `C[C@]12CCC(=O)C(O)=C1CC[C@@H]1[C@@H]2CC[C@]2(C)C(=O)CC[C@@H]12` [4-Hydroxyandrostenedione] came in with a cytotoxic concentration (CC50) at 24 h greater than 50 µM.

The series is the same for the next values; noted with them: rat, gh3-tre-luc cells, AC50 (uM) modified / 1000, Tox21_110001=Tox21_113608; viability, 1 nM T3 present, 24 h.
For `O=[P@]1(N(CCCl)CCCl)N[C@H](OO)CCO1` [4-Hydroperoxy cyclophosphamide], the half-maximal cytotoxic concentration (CC50) at 24 h is greater than 50 µM.

The same series, now with this note: rat, gh3-tre-luc cells, AC50 (uM) modified / 1000, Tox21_110001=Tox21_201498; viability, 1 nM T3 present, 24 h.
For the compound `COc1ccc(N)cc1` [4-Methoxyaniline hydrochloride], the CC50 at 24 h was greater than 90 µM.

The series is the same for the next values; noted with them: rat, gh3-tre-luc cells, AC50 (uM) modified / 1000, Tox21_110001=Tox21_201627; viability, 1 nM T3 present, 24 h.
Consider `Nc1ccc(Cl)cc1` [4-Chloroaniline hydrochloride], for which the CC50 at 24 h was greater than 90 µM.

Staying with this series, now noted: rat, gh3-tre-luc cells, AC50 (uM) modified / 1000, Tox21_110001=Tox21_201946; viability, 1 nM T3 present, 24 h.
As for `CCOc1ccc(N)cc1` [4-Ethoxyaniline], the CC50 at 24 h was greater than 90 µM.

Still in this series, the particulars now being: rat, gh3-tre-luc cells, AC50 (uM) modified / 1000, Tox21_110001=Tox21_301323; viability, 1 nM T3 present, 24 h.
`CC(C)c1ccc(O)cc1` [4-Isopropylphenol]: the cytotoxic concentration (CC50) at 24 h is greater than 90 µM.

Staying with this series, now noted: rat, gh3-tre-luc cells, AC50 (uM) modified / 1000, Tox21_110001=Tox21_301477; viability, 1 nM T3 present, 24 h.
Regarding `N#Cc1ccc(Cl)cc1` [4-Chlorobenzonitrile], the CC50 at 24 h is greater than 90 µM.

Still in this series, the particulars now being: rat, gh3-tre-luc cells, AC50 (uM) modified / 1000, Tox21_110001=Tox21_301548; viability, 1 nM T3 present, 24 h.
Compound `CCCCCCCc1ccc(O)cc1` [4-Heptylphenol] registered a CC50 at 24 h greater than 90 µM.

The same series, now with this note: rat, gh3-tre-luc cells, AC50 (uM) modified / 1000, Tox21_110001=Tox21_302286; viability, 1 nM T3 present, 24 h.
For the compound `C[C@]12CCC(=O)C(O)=C1CC[C@@H]1[C@@H]2CC[C@]2(C)C(=O)CC[C@@H]12` [4-Hydroxyandrostenedione], the CC50 at 24 h was greater than 90 µM.

Still in this series, the particulars now being: rat, gh3-tre-luc cells, AC50 (uM) modified / 1000, Tox21_110001=Tox21_302651; viability, 1 nM T3 present, 24 h.
In turn, `C=CC(=O)OCCCCO` [4-Hydroxybutyl prop-2-enoate] yielded a CC50 at 24 h of 73.9 µM.

Still in this series, the particulars now being: rat, gh3-tre-luc cells, AC50 (uM) modified / 1000, Tox21_110001=Tox21_303039; viability, 1 nM T3 present, 24 h.
On to `COc1ccc(N)cc1` [4-Methoxyaniline], for which the CC50 at 24 h is greater than 100 µM.
